Assay results taken from patent US11453640B2, “Small molecules for disrupting the super elongation complex and inhibiting transcription elongation for cancer therapy” (NORTHWESTERN UNIVERSITY, priority 2018, dated 2022).

target: T1, AFF4-CCNT1 interaction (GST-CCNT1 AA 1-300 and biotin-AFF4 peptide AA 32-67) (Homo sapiens, UniProt O60563); assay: AlphaLISA assay of the AFF4-CCNT1 interaction (Alpha Screen); format: binding; details: not given
T1 construct: Recombinant GST-CCNT1 (1-300), which was purified by Glutathione Superflow Agarose from Rosetta cells; VCPBIO (peptide synthesis) Addgene P#432; host or cells: Rosetta cells
T1 sequence (O60563 1-300): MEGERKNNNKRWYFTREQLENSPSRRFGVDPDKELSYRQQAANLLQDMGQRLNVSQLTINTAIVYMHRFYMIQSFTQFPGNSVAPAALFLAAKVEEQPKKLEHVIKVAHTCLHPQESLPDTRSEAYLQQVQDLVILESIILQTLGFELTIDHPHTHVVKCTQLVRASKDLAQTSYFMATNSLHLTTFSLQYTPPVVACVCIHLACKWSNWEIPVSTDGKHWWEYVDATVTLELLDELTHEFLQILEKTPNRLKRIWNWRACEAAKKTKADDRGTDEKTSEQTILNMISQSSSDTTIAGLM
Description: FIG. 1. Peptidomimetic identification of disruptors of the AFF4-CCNT1 interaction within the Super Elongation Complex. (A) Schematic for the identification of small molecule inhibitors of the AFF4-CCNT1 interaction using in silico high-throughput screening. Compounds from the ZINC database were docked with the AFF4-CCNT1 structure (4IMY) using a three-tier glide-docking algorithm, which led to 40 candidates. Residues forming the deep binding pocket of CCNT1 are labeled orange and residues of the AFF4 peptide are labeled red. (B) Validation screening identified KL-1 as a potential SEC disruptor using AlphaLISA screening. GST-CCNT1 (AA 1-300) and biotin-labeled AFF4 peptide (AA 32-67) were used to measure the AFF4-CCNT1 interaction with the AlphaLISA assay. (C) Similarity search for KL-1-like molecules identified KL-2. The peptidomimetic potential of KL-1 and KL-2 can be seen by overlaying them with the AFF4 peptide LFAEP structure. (D) Dose-dependent inhibition of KL-1 and KL-2 on AFF4-CCNT1 interaction. The Ki constants of both compounds were measured with the AlphaLISA assays. (E) Treatment of HEK293T cells with KL-1 and KL-2 results in reduced protein levels of SEC components AFF1 and AFF4 but not CDK9 or CCNT1. HEK293T cells were treated with 20 μM of SEC inhibitors KL-1 or KL-2 for 6 hr. 5 μl, 10 and 20 μl cell lysates were loaded and the protein levels of AFF1, AFF4, CCNT1, CDK9 and Tubulin (load control) were determined by western blotting.
FIG. 8, related to FIG. 1. Peptidomimetic identification of disruptors of the AFF4-CCNT1 interaction within the Super Elongation Complex. (A) Schematic of AlphaLISA assay of the AFF4-CCNT1 interaction. Anti-GST AlphaLISA acceptor beads and AlphaScreen streptavidin donor beads (Perkin Elmer) were used to detect the interaction of GST-CCNT1 (AA1-300) and biotin-AFF4 (AA32-67). (B-C) Optimization of the AlphaLISA assay with various biotin-AFF4 peptide and GST-CCNT1 concentrations. No CCNT1 (B) and mutant AFF4 (C) were used as negative controls. Data are represented as Mean+/−SD. (D) Scheme for chemical synthesis of SEC inhibitors KL-1 and KL-2. Reagents and conditions: a. LDA, THF, −78° C., 15 min., then diethyl oxalate, −78° C. to room temperature. b. NaOH, THF/H2O, room temperature, 15 min. c. EEDQ, 5-chloro-2-methylaniline, THF, room temperature, 24 hr. […] 293T cells were treated with 20 μM of KL-1 or KL-2 for 6 hr, and the protein levels of BRD2, BRD4, Pol II (RPB1), SPT5, MED26, MYC, HSP90 (load control) and Tubulin (load control) were measured by western blotting. (F) Treatment of HCT-116 cells with KL-1 and KL-2 reduced protein levels of SEC components AFF1 and AFF4 but not CDK9 or CCNT1. HCT-116 cells were treated with 20 μM of KL-1 or KL-2 for 6 hr, and the protein levels of AFF1, AFF4, CCNT1, CDK9 and Tubulin (load control) were determined by western blotting. (G-H) Treating cells with KL-1 and KL-2 results in reduced levels of AFF 1 and AFF4. FLAG-AFF1 (G) and FLAG-AFF4 (H) were expressed under the Tet-inducible promoter in HEK293T cells. Cells were treated with 20 μM of the indicated inhibitors for 6 hr for western blotting. […] RNA-seq was performed in HEK293T cells treated for 12 hr with 20 μM of the indicated inhibitors. The log2CPM (counts per million) of the SEC subunits were calculated with HTseq. KL-1 and KL-2 had no significant effects on CCNT1, CDK9 and AFF1 expression, but modest increases in the mRNA levels of AFF4 and ELL2 were observed (n=3). Unpaired two-way ANOVA was used for the statistical testes. **,p<0.05, ***,p<0.001.
To test if candidate compounds can disrupt the AFF4-CCNT1 interaction in vitro, we established and optimized a bead-based AlphaLISA assay with recombinant CCNT1 (1-300) protein and synthesized Biotin-AFF4 peptides (AA 32-67) (FIGS. 8A, 8B and 8C).
AlphaLISA Assay. The interaction of CCNT1-AFF4 was measured by Perkin Elmer's bead-based AlphaLISA assays. […]

IC50 [µM]	SMILES
21.3 ± 3.1	COc1cccc(NC(=O)C(=O)CC(=O)c2ccc(F)cc2)c1C [NUCC-0202067]
≥ 30	O=C(CC(=O)c1ccc(F)cc1)C(=O)NCc1ccccc1 [NUCC-0201688]
≥ 60	O=C(CC(=O)c1ccc(F)cc1)C(=O)NC1CCCC1 [NUCC-0202069]
11.4 ± 0.9	O=C(CC(=O)c1ccc(F)cc1)C(=O)Nc1cccc(Cl)c1 [NUCC-0202068]
17.4	COc1cccc(C(=O)CC(=O)C(=O)Nc2ccc(F)c(F)c2)c1 [NUCC-0201921]
20	COc1cccc(C(=O)CC(=O)C(=O)Nc2ccc(F)cc2)c1 [NUCC-0201924]
≥ 30	Cc1nccnc1NC(=O)C(=O)CC(=O)c1ccc(F)cc1 [NUCC-0201596]
15.2 ± 8	COc1cccc(C(=O)CC(=O)C(=O)Nc2cc(C(=O)O)ccc2C)c1 [NUCC-0201926]
≥ 60	Cc1nc(NC(=O)C(=O)CC(=O)c2ccc(F)cc2)no1 [NUCC-0201691]
14.3	COc1cc(NC(=O)C(=O)CC(=O)c2cccc(OC)c2)cc(OC)c1 [NUCC-0201922]
12.8	COc1cccc(C(=O)CC(=O)C(=O)Nc2ccc(Cl)c(Cl)c2)c1 [NUCC-0201923]
30.6 ± 1.4	Cc1ccc(Cl)cc1NC(=O)[C@@H](O)CC(=O)c1ccc(F)cc1 [NUCC-0202170]
15.7	COc1cccc(C(=O)CC(=O)C(=O)Nc2cccc(OC)c2C)c1 [NUCC-0201929]
14.4	COc1cccc(C(=O)CC(=O)C(=O)Nc2cccc(Cl)c2)c1 [NUCC-0201925]
9.88 ± 0.6	O=C(CC(=O)c1ccc(F)cc1)C(=O)Nc1nn[nH]n1 [NUCC-0201690]
≥ 30	O=C(CC(=O)c1ccc(F)cc1)C(=O)NCc1ccncc1 [NUCC-0201689]
14.8 ± 2	Cc1ccccc1NC(=O)C(=O)CC(=O)c1ccc(F)cc1 [NUCC-0202092]
20.8 ± 4.2	O=C(CC(=O)c1ccc(F)cc1)C(=O)Nc1nccs1 [NUCC-0201692]
7.42 ± 0.26	O=C(CC(=O)c1ccc(F)cc1)C(=O)Nc1cncc(F)c1 [NUCC-0201693]
17.9 ± 2.4	COc1cccc(C(=O)CC(=O)C(=O)Nc2cncnc2C)c1 [NUCC-0201927]

same assay, conditions: AlphaLISA; IC50 converted to Ki with the Cheng and Prusoff equation; read-out: Ki, inhibition of the AFF4-CCNT1 interaction

Ki [µM]	SMILES
1.5	Cc1ccc(Cl)cc1NC(=O)C(=O)CC(=O)c1ccc(F)cc1 [KL-2, N-(5-chloro-2-methylphenyl)-4-oxo-(4-fluorophenyl)-2-oxobutanamide]

same assay, conditions: tested at 20 μM

SMILES	disruption of the AFF4-CCNT1 interaction
CN1CC[C@H](c2c(O)cc(O)c3c(=O)cc(-c4ccccc4Cl)oc23)[C@H](O)C1 [flavopiridol, reference compound]	neither the pan-CDK9 kinase inhibitor flavopiridol nor the BET domain inhibitors disrupted the AFF4-CCNT1 interaction

tested on: not listed separately; assay: Toxicity test in mice (body weight, sickness); format: in vivo; details: 5 doses of 10 mg/kg, intraperitoneal, monitored 35 days
Protocol: FIG. 14, related to FIG. 7. SEC disruptors delay tumor progression and improve survival of MDA231-LM2 tumor mice. (A) KL-1 and KL-2 inhibit the colony formation of MDA231-LM2 cells in vitro. 5×10^3 MDA231-LM2 cells were seeded in 6-well plates and treated with KL-1 or KL-2 at the indicated doses for 5 days. Crystal violet staining was performed to stain the colonies. (B) KL-1 and KL-2 induce apoptosis in MDA231-LM2 cells. Bar graph depiction of Annexin V positive MDA231-LM2 cells after 24 hr of KL-1 and KL-2 treatments at the indicated concentrations. Data are represented as Mean+/−SD. […] Each individual line indicates the weights of each mouse during toxicity test.

SMILES	weight loss in mice
Cc1ccc(Cl)cc1NC(=O)C(=O)CC(=O)c1ccc(F)cc1 [KL-2, N-(5-chloro-2-methylphenyl)-4-oxo-(4-fluorophenyl)-2-oxobutanamide]	does not result in significant weight loss

same assay, conditions: 5 doses of 10 mg/kg, monitored 35 days

SMILES	sign of sickness in mice
Cc1ccc(Cl)cc1NC(=O)C(=O)CC(=O)c1ccc(F)cc1 [KL-2, N-(5-chloro-2-methylphenyl)-4-oxo-(4-fluorophenyl)-2-oxobutanamide]	no obvious sign of sickness was observed
